Reference: patent publication US10485814B2, “Nicotinamide riboside analogs and pharmaceutical compositions and uses thereof” (GlaxoSmithKline Intellectual Property (No. 2) Limited, priority 2014, dated 2019)
Counter-ions that a name gives are not always drawn.

How the values were obtained:
[1] = Plasma hydrolysis of nicotinamide riboside analogs to NR (incubation with rat plasma, LC/MS/MS); format: in vitro ADME; conditions: 10 mM, incubated 30 min at 37° C.
Description: Compounds were diluted with rat plasma to a concentration of 10 millimolar (mM). Samples were incubated for 30 min at 37° C., taking 50 microL aliquots for analysis at 0 and 30 min. The aliquots were loaded onto a deep 96 well plate, then 350 microL of 0.1% (v:v) formic acid in acetonitrile was added to each well. The plate was covered and sealed to prevent evaporation, then it was placed on an orbital plate shaker set to 800-900 rps for 5-10 minutes. Next, the plate was centrifuged at around 3000 rpm for 5 min to provide a clear supernatant. For LC/MS/MS analysis, 200 microL of supernatant from each well was transferred onto a clean plate, which was subsequently capped and placed into an autosampler.
LCMS Conditions. For each well, a 10 microL sample was injected via autosampler onto a Chromolithe Performance, RP-18e (100×4.6 mm) column, and eluted with a binary gradient. Solvent A=0.1% formic acid, 0.1% N,N-dibutyl-N-methylamine (DBME) in 2 mM aqueous ammonium acetate (1:1:1000 v:v:v). Solvent B=0.1% formic acid in acetonitrile (1:1000 v:v). The solvent gradient was as follows: 0-0.22 min, 95:5 A:B; […], 95:5 A:B to 30:70 A:B (linear gradient); 5.05-6.05 min, 30:70 A:B; 6.05-6.60 min, 30:70 A:B to 95:5 A:B (linear gradient); 6.60-7.15 min, 95:5 A:B; stop elution at 7.15 min. Nicotinamide riboside eluted at approximately 1.7 min. A triple-quadrupole mass spectrometer was employed for peak identification. The identity of the analyte was confirmed by MS observation of a Q1 peak at m/z=255 (M)^+, and a Q3 peak at m/z=123.1 (M-C5H8O4)^+.
The results are shown in FIG. 3, with the release of free nicotinamide riboside measured using by HPLC-MS at 0, 30, and 60 minute time points (columns 5, 6, and 7 of table shown in FIG. 3). For each of NR esters in Table 3, except nicotinamide riboside tribenzoate, nicotinamide riboside was detected at the 30 minute time point.

[2] = test system: HaCaT cells (a human keratinocyte cell line); assay: Intracellular NAD measurement in HaCaT cells (ADPR cyclase enzymatic assay, absorbance 405 nm); format: cell-based
Description: HaCaT cells (AddexBio Technologies, San Diego, Calif., Passage 16-19) were grown in Medium DMEM/GlutMax (Life technologies, Grand Island, N.Y.) supplemented with 10% FBS (Life technologies) and Non-essential amino acids (NEAA, Life technologies) and then seeded in 12-well plates (Corning, Tewksbury, Mass.) with a density at 2×10^5 cells per well and 2 ml of culture medium in each well for overnight.
Stock solution of dihydronicotinamide riboside (NRH, GSK3008320A, GSK, RTP, NC) was prepared in ethanol at 100 mM (25.6 mg/ml) and stored at −20° C. Cells were treated with different concentrations of NRH for 3 hrs, washed twice with PBS containing 5 mM EDTA, and then subject to Nicotinamide adenine dinucleotide (NAD) measurement. In brief, acetonitrile (ACN) lysis buffer (Ammonium Acetate (50 mM) and 90% acetonitrile) was added to each well (200 μl/well) to lyse the cells at RT for 5-10 mins by gently rotating on a culture plate shaker at a low speed. Enzyme master mix (300 μM of 5-Amino-(3,4′-bipyridin)-6(1H)-one (Inamrinone) (Sigma-Aldrich), a substrate for ADP ribosyl cyclase (ADPR cyclase)) and 30 nM ADPR Cyclase (Sigma, St. Louis, Mo.), 7.5 μM of N-(2-fluoro-4-(methylsulfonyl)phenyl)-2-methyl-6-(thiazol-5-yl)isonicotinamide (a CD38 inhibitor) in 75 mM HEPES pH7 buffer (Life Technologies)) was added to the lysed cells (400 μl of enzyme master mix/well). Enzymatic reaction was incubated at RT for ˜30 min. At the end of incubation, the supernatant (200 μl) of the reaction solution from each well was transferred to each well of a 96-well plate and absorbance was read twice in the 96-well plate at 405 nm using a plate reader (Spectra Maxplus, Molecular Devices, Sunnyvale, Calif.). A mixture of enzyme master mix and ACN extraction solution at 2:1 ratio was used as a blank reference. NAD (Sigma) was used as a positive control.
HaCaT cells were grown as described in example 23 in the regular cell culture DMEM medium as described earlier or in the Epilife medium without nacinamide (Life Technologies). Cells were treated with different concentrations of NRH or niacinamide (NIA, DSM nutritional products) for 3 hrs, washed twice with PBS containing 5 mM EDTA, and then subject to Nicotinamide adenine dinucleotide (NAD) measurement as described in example 23. A mixture of enzyme master mix and ACN extraction solution at 2:1 ratio for a blank reference. NAD (Sigma) was used as a positive control. […] Both the CD38 inhibitor and Niacinamide increased NAD in the HaCaT cells cultured in the Vit B3 depleted culture medium, and the induction of NAD by niacinamide was dose-dependent (solid bars). However, the induction of NAD by niacinamide (highest at ˜1.5 fold) was low compared to those by NRH. Therefore, NRH is a stronger NAD inducer compared to a CD38 inhibitor or Niacinamide.
HaCaT cells were grown in regular culture media as described in example 1 and seeded in 12-well plates with density at 2×10^5 cells per well and 1 ml of culture medium in each well. NRH stock solution was prepared in ethanol at 100 mM (25.6 mg/ml) and stored at −20° C. Stock solutions of NRH esters were made at 50 mM in DMSO (see FIG. 9B for compound info). Cells were treated with NRH esters and NRH at 150 μM for 6 and 16 hrs, washed twice with PB S containing 5 mM EDTA, and then subject to Nicotinamide adenine dinucleotide (NAD) measurement as described in example 23.
HaCaT cells were grown in regular culture media as described above and seeded in 12-well plates with density at 2×10^5 cells per well and 1 ml of culture medium in each well. NRH stock solution was prepared in ethanol at 100 mM (25.6 mg/ml) and stored at −20° C. NRH (200 μM) was used as a positive control. Because of the possible solubility issue related to NRH monoC16, fatty acid-free bovine serum albumin (defatted BSA, Sigma) was used as a carrier for the compound. NRH monoC16 stock solution (100×) was complexed with defatted BSA ([…]) prior to the treatment, resulting in a NRH monoC16 stock solution (10 ×). […]

[3] = Gravimetric Vapor Sorption (GVS); format: physicochemical; conditions: 90% RH, 25° C.
Description: Gravimetric Vapor Sorption (GVS): Samples were analyzed using a VTI corporation (now part of TA Instruments) SGA-100 with Cahn microbalance equipped with quartz sample and reference pans. Samples were dried in the SGA-100 under dry nitrogen for 5 hours at 25° C. followed by a moisture absorption step ramp from 5% relative humidity (RH) to 95% or 90% RH followed by a desorption step ramp back to 5% or 10% RH (all steps at 25° C.). The samples were held at each % RH step for 4 hours.

## CCCCC(=O)OC[C@H]1O[C@@H]([n+]2cccc(C(N)=O)c2)[C@H](OC(=O)CCCC)[C@@H]1OC(=O)CCCC [1-((2R,3R,4R,5R)-3,4-bis(pentanoyloxy)-5-((pentanoyloxy)methyl)tetrahydrofuran-2-yl)-3-carbamoylpyridin-1-ium chloride]
[1]
  conversion to free nicotinamide riboside: converted to free nicotinamide riboside to a significant degree

## Cc1cc(C(=O)Nc2ccc(S(C)(=O)=O)cc2F)cc(-c2cncs2)n1 [CD38 inhibitor, N-(2-fluoro-4-(methylsulfonyl)phenyl)-2-methyl-6-(thiazol-5-yl)isonicotinamide, reference compound]
[2]; HaCaT in DMEM medium with Vit B3, highest tested doses, 3 hrs
  NAD elevation: did not lead to NAD elevation
[2]; HaCaT in Vit B3 depleted culture medium, 3 hrs
  NAD level: increased NAD

## CCCCCCCCCCCC(=O)OC[C@H]1O[C@@H]([n+]2cccc(C(N)=O)c2)[C@H](O)[C@@H]1O.O=C([O-])C(F)(F)F [NR+ monododecanoate, nicotinamide riboside 5′-monododecanoate]
[1]
  conversion to free nicotinamide riboside: converted to free nicotinamide riboside to a significant degree

## CCCCCC(=O)OC[C@H]1O[C@@H]([n+]2cccc(C(N)=O)c2)[C@H](O)[C@@H]1O [NR+ monohexanoate, 3-carbamoyl-1-((2R,3R,4S,5R)-5-((hexanoyloxy)methyl)-3,4-dihydroxytetrahydrofuran-2-yl)pyridin-1-ium 2,2,2-trifluoroacetate]
[1]
  conversion to free nicotinamide riboside: converted to free nicotinamide riboside to a significant degree

## CCCCCCCCC(=O)OC[C@H]1O[C@@H]([n+]2cccc(C(N)=O)c2)[C@H](O)[C@@H]1O [NR+ monononanoate, 3-carbamoyl-1-((2R,3R,4S,5R)-3,4-dihydroxy-5-((nonanoyloxy)methyl)tetrahydrofuran-2-yl)pyridin-1-ium 2,2,2-trifluoroacetate]
[1]
  conversion to free nicotinamide riboside: converted to free nicotinamide riboside to a significant degree

## CCCCCCCC/C=C\CCCCCCCC(=O)OC[C@H]1O[C@@H]([n+]2cccc(C(N)=O)c2)[C@H](O)[C@@H]1O [NR+ monooleate, 3-carbamoyl-1-((2R,3R,4S,5R)-3,4-dihydroxy-5-((oleoyloxy)methyl)tetrahydrofuran-2-yl)pyridin-1-ium 2,2,2-trifluoroacetate]
[1]
  conversion to free nicotinamide riboside: converted to free nicotinamide riboside to a significant degree
[2]; HaCaT, 150 μM
  appearance of treated cells (potential cytotoxicity): appeared unhealthy

## CCCCC(=O)OC[C@H]1O[C@@H]([n+]2cccc(C(N)=O)c2)[C@H](O)[C@@H]1O [NR+ monopentanoate, 3-carbamoyl-1-((2R,3R,4S,5R)-3,4-dihydroxy-5-((pentanoyloxy)methyl)tetrahydrofuran-2-yl)pyridin-1-ium 2,2,2-trifluoroacetate]
[1]
  conversion to free nicotinamide riboside: converted to free nicotinamide riboside to a significant degree

## CCCCCCCCCCC(=O)OC[C@H]1O[C@@H]([n+]2cccc(C(N)=O)c2)[C@H](O)[C@@H]1O [NR+ monoundecanoate, nicotinamide riboside 5′-monoundecanoate]
[1]
  conversion to free nicotinamide riboside: converted to free nicotinamide riboside to a significant degree

## CCCCCC(=O)OCC1O[C@@H]([n+]2cccc(C(N)=O)c2)[C@H](OC(=O)CCCCC)[C@@H]1OC(=O)CCCCC (stereo partly shown) [NR+ trihexanoate TFA-]
[1]
  conversion to free nicotinamide riboside: converted to free nicotinamide riboside to a significant degree

## CCCCCCCCCC(=O)OC[C@H]1O[C@@H](N2C=CCC(C(N)=O)=C2)[C@H](O)[C@@H]1O [NRH monodecanoate, nicotinamide riboside hydride 5′-monodecanoate]
[1]
  conversion to free nicotinamide riboside: converted to free nicotinamide riboside to a significant degree

## CCCCCCCCCCCCCC(=O)OC[C@H]1O[C@@H](N2C=CCC(C(N)=O)=C2)[C@H](O)[C@@H]1O [NRH monotetradecanoate, ((2R,3S,4R,5R)-5-(3-carbamoylpyridin-1 (4H)-yl)-3,4-dihydroxytetrahydrofuran-2-yl)methyl tetradecanoate]
[1]
  conversion to free nicotinamide riboside: converted to free nicotinamide riboside to a significant degree

## CCOC(=O)OC[C@H]1O[C@@H](N2C=CCC(C(N)=O)=C2)[C@H](OC(=O)OCC)[C@@H]1OC(=O)OCC [NRH triethylcarbonate, ((2R,3R,4R,5R)-5-(3-carbamoylpyridin-1(4H)-yl)-3,4-bis((ethoxycarbonyl)oxy)-tetrahydrofuran-2-yl)methyl ethylcarbonate]
[1]
  conversion to free nicotinamide riboside: converted to free nicotinamide riboside to a significant degree

## NC(=O)c1ccc[n+]([C@@H]2O[C@H](COP(=O)([O-])O)[C@@H](O)[C@H]2O)c1 [Nic mononucleotide, nicotinamide mononucleotide, reference compound]
[1]
  conversion to free nicotinamide riboside: some amount of conversion to free nicotinamide riboside

## CCCCCC(=O)OC[C@H]1O[C@@H](N2C=CCC(C(N)=O)=C2)[C@H](O)[C@@H]1O [mono C6-NRH derivative, nicotinamide riboside hydride 5′-monohexanoate]
[3]
  GVS weight gain from the dried state: approximately 5%
